SMILES strings stand for the structures.

The assay deals with acyl-CoA: cholesterol acyltransferase (ACAT). Nature of the assay: in vitro ACAT inhibition, rabbit intestinal microsomes (IAI). Type of assay: biochemical. The note with it: radiolabeled cholesterol oleate formed from radiolabeled oleic acid. The source says: The test assesses the ability of a test compound to inhibit the acylation of cholesterol by oleic acid by measuring the amount of radiolabeled cholesterol oleate formed from radiolabeled oleic acid in a tissue preparation containing rabbit intestinal microsomes (designated IAI) or from rat liver microsomes (designated LAI).
On to `CCCCCCCCCCCCn1nnc(C(C)C(=O)Nc2c(OC)cc(OC)cc2OC)n1` (racemic) [Example 58, (±)-2-Dodecyl-α-(methyl)-N-(2,4,6-trimethoxy-phenyl)-2H-tetrazole-5-acetamide], for which the 50% inhibitory concentration (IC50) was 31 nM.
For `CCCCCCCCCCCCn1nnc(C(C)(C)C(=O)Nc2c(OC)cc(OC)cc2OC)n1` [Example 27, 2-Dodecyl-α,α-dimethyl-N-(2,4,6-trimethoxyphenyl)-2H-tetrazole-5-acetamide], the IC50 stood at 14 nM.
Regarding `CCCCCCCCCCCCn1nnc(C(C(=O)Nc2c(C(C)C)cccc2C(C)C)c2ccccc2)n1` (racemic) [Example 15, (±)-N-[2,6-bis(1-methylethyl)phenyl]-2-dodecyl-α-phenyl-2H-tetrazole-5-acetamide], the midpoint of inhibition, the IC50, lay at 8 nM. This IC50 is about 1.8-fold lower than that of the molecule before.
The molecule `CCCCCCCCCCCCn1nnc(CC(=O)Nc2c(OC)cc(OC)cc2OC)n1` [Example 5, 2-dodecyl-N-(2,4,6-trimethoxyphenyl)-2H-tetrazole-5-acetamide] gave an IC50 of 10 nM.
For `CCCCCCCCCCCCn1nnc(C(C(=O)Nc2c(OC)cc(OC)cc2OC)c2ccc(F)cc2)n1` (racemic) [Example 52, (±)-2-Dodecyl-α-(4-fluorophenyl)-N-(2,4,6-trimethoxyphenyl)-2H-tetrazole-5-acetamide] the value was 36 nM; for `CCCCCCCCCCCCn1nnc(CCC(=O)Nc2c(OC)cc(OC)cc2OC)n1` [Example 34, 2-Dodecyl-N-(2,4,6-trimethoxyphenyl)-2H-tetrazole-5-propanamide], 69 nM; for `CCCCCCCCCCCCn1nnc(C(C(=O)NC2CC2)c2ccccc2)n1` (racemic) [Example 20, (±)-N-cyclopropyl-2-dodecyl-α-phenyl-2H-tetrazole-5-acetamide], 47 nM.
Next, `CCCCCCCCCCCCn1nnc(CC(=O)Nc2c(C)nn(C)c2C)n1` [Example 11, 2-dodecyl-N-(1,3,5-trimethyl-1H-pyrazol-4-yl)-2H-tetrazole-5-acetamide]: 17 nM; `CCCCCCCCCCCCn1nnc(C(C(=O)Nc2c(C(C)C)cccc2C(C)C)c2ccccn2)n1` (racemic) [Example 55, (±)-N-[2,6-Bis(1-methylethyl)phenyl]-2-dodecyl-α-2-pyridinyl-2H-tetrazole-5-acetamide]: 26 nM.
`CCCCCCCCCCCCn1nnc(C(C(=O)Nc2c(C(C)C)cccc2C(C)C)(c2ccccc2)c2ccccc2)n1` [Example 46, N-[2,6-Bis(1-methylethyl)phenyl]-2-dodecyl-α,α-diphenyl-2H-tetrazole-5-acetamide] had a half-maximal inhibitory concentration (IC50) of 11000 nM.
For the molecule `CCCCCCCCCCCCCCn1nnnc1CC(=O)Nc1c(OC)cc(OC)cc1OC` [Example 50, 1-tetradecyl-N-(2,4,6-tri-methoxyphenyl)-1H-tetrazole-5-acetamide], the half-maximal inhibitory concentration (IC50) is 1000 nM.
`CCCCCCCCCCCCn1nnc(C(C(=O)Nc2c(OC)cc(OC)cc2OC)c2ccc3ccccc3c2)n1` (racemic) [Example 53, (±)-2-Dodecyl-α-2-naphthalenyl-N-(2,4,6-trimethoxyphenyl)-2H-tetrazole-5-acetamide] registered a 50% inhibitory concentration (IC50) of 97 nM.
In turn, `CCCCCCCCCCCCn1nnc(C(C(=O)Nc2c(C)ccc[n+]2[O-])c2ccccc2)n1` (racemic) [Example 24, (±)-2-Dodecyl-N-(3-methyl-2-pyridinyl)-2-phenyl-2H-tetrazole-5-acetamide, N-oxide] gave an IC50 of 41 nM.
`CCCCCCCCCCCCn1nnc(CC(=O)Nc2ncccc2C)n1` [Example 7, 2-dodecyl-N-(3-methyl-2-pyridinyl)-2H-tetrazole-5-acetamide] yielded a 50% inhibitory concentration (IC50) of 28 nM.
For `CCCCCCCCCCCCn1nnc(C(C(=O)Nc2c(OC)cc(OC)cc2OC)C2CCCCC2)n1` (racemic) [Example 60, (±)-2-Dodecyl-α-(cyclohexyl)-N-(2,4,6-trimethoxy-phenyl)-2H-tetrazole-5-acetamide] the value was 28 nM; for `CCCCCCCCCCCCn1nnc(C(Cc2ccccc2)C(=O)Nc2c(OC)cc(OC)cc2OC)n1` (racemic) [Example 59, (±)-2-Dodecyl-α-(phenylmethyl)-N-(2,4,6-trimethoxyphenyl)-2H-tetrazole-5-acetamide], 49 nM; for `CCCCCCCCCCCCn1nnc(C(C(=O)Nc2ccccc2)c2ccccc2)n1` (racemic) [Example 14, (±)-2-dodecyl-N,α-diphenyl-2H-tetrazole-5-acetamide], 91 nM.
With `CCCCCCCCCCCCn1nnc(C(C(=O)Nc2c(OC)cc(OC)cc2OC)c2ccc(-c3ccccc3)cc2)n1` (racemic) [Example 54, (±)-α-([1,1'-biphenyl]-4-yl)-2-dodecyl-N-(2,4,6-trimethoxy-phenyl)-2H-tetrazole-5-acetamide], inhibition was half-maximal at 220 nM (IC50). Compared with the last molecule, the IC50 is about 2.4-fold higher.
Next, `CCCCCCCCCCCCn1nnnc1C(C(=O)Nc1ccc(F)cc1F)c1ccccc1` (racemic) [Example 25, (±)-N-(2,4-Difluorophenyl)-1-dodecyl-α-phenyl-1H-tetrazole-5-acetamide]: 800 nM.
Molecule `CCCCCCCCCCCCn1nnc(C(C(=O)Nc2c(OC)cc(OC)cc2OC)c2ccccc2)n1` (single isomer, unassigned; (+)) [Example 62, (+)-2-Dodecyl-α-phenyl-N-(2,4,6-trimethoxy-phenyl)-2H-tetrazole-5-acetamide] had a half-inhibitory concentration (IC50) of 14 nM.
In turn, `CCCCCCCCCCCCn1nnc(CC(=O)Nc2ccc(F)cc2F)n1` [Example 9, N-(2,4-difluoro-phenyl)-2-dodecyl-2H-tetrazole-5-acetamide] came in with an IC50 of 280 nM. This IC50 lies about 20-fold higher than the previous one.
Turning to `CCCCCCCCCCCCCCn1nnc(CC(=O)Nc2c(OC)cc(OC)cc2OC)n1` [Example 49, 2-tetradecyl-N-(2,4,6-tri-methoxyphenyl)-2H-tetrazole-5-acetamide], half-maximal inhibition (IC50) was put at 15 nM.
In turn, `C=CCC(CC=C)(C(=O)Nc1c(OC)cc(OC)cc1OC)c1nnn(CCCCCCCCCCCC)n1` [Example 28, 2-Dodecyl-α,α'-(2-propenyl)-N-(2,4,6-trimethoxyphenyl)-2H-tetrazole-5-acetamide] had an IC50 of 18 nM.
The molecule `CCCCCCCCCCCCn1nnc(C(C(=O)Nc2c(OC)cc(OC)cc2OC)c2ccccc2)n1` (racemic) [Example 13, (±) 2-Dodecyl-α-phenyl-N-(2,4,6-trimethoxyphenyl)-2H-tetrazole-5-acetamide] yielded an IC50 of 9 nM.
In the case of `CCCCCCCCCCCCCCn1nnc(CCC(=O)Nc2c(OC)cc(OC)cc2OC)n1` [Example 47, 2-tetradecyl-N-(2,4,6-tri-methoxyphenyl)-2H-tetrazole-5-propanamide], the half-maximal inhibitory concentration (IC50) stood at 2100 nM.
`CCCCCCCCCCCCn1nnc(C(C(=O)Nc2ccc(F)cc2F)c2ccccc2)n1` (racemic) [Example 21, (±)-N-(2,4-difluoro-phenyl)-2-dodecyl-α-phenyl-2H-tetrazole-5-acetamide] yielded an IC50 of 15 nM.
For the molecule `CCCCCCCCCCCCn1nnc(C2(C(=O)Nc3c(OC)cc(OC)cc3OC)CCCC2)n1` [Example 29, 1-(2-Dodecyl-2H-tetrazol-5-yl)-N-(2,4,6-trimethoxyphenyl)cyclopentanecarboxamide], 10 nM corresponded to half-maximal inhibition (IC50). This IC50 is about 1.5-fold lower than that of the molecule before.
`CCCCCCCCCCCCn1nnc(C(C(=O)Nc2ccc3c(C)cc(C)nc3n2)c2ccccc2)n1` (racemic) [Example 17, (±)-N-(5,7-dimethyl-1,8-naphthyridine-2-yl)-2-dodecyl-α-phenyl-2H-tetrazole-5-acetamide]: the concentration for half-maximal inhibition (IC50) was determined as 190 nM.

Source of the values: patent EP0600950B1, “AMIDE TETRAZOLE ACAT INHIBITORS” (priority 1991, dated 1993).
